Source: article PMC11456426, “Study of transport, tissue distribution, depletion, and hepatotoxicity of Cyadox, a quinoxaline-1,4-dioxide derivative” (Frontiers in Pharmacology, 2024)
Read-outs that look alike come from different tables or passages of the source.

Assays:
[1] = target: T1, bovine serum albumin (BSA) (Bos taurus, UniProt P02769); assay: Circular dichroism spectra of the BSA-CYA system; assay type: binding; details: 1.0 × 10^−6 M BSA with 1.0 × 10^−6 M CYA, pH 7.4, 312 K
Description: For CD studies, the final concentration of BSA and CYA was 1.0 × 10^−6 M. The CD spectra were recorded at 312 K with a Jasco-810 spectropolarimeter (Jasco, Japan) using a 0.1 cm quartz cuvette. Three scans were accumulated at a scan speed of 200 nm min^−1, with data being collected every 0.2 nm from 200 nm to 260 nm at 312 K.

[2] = target: T1, bovine serum albumin (BSA); assay: Fluorescence quenching of BSA by CYA (Stern-Volmer and binding constants); details: for Kd: read-out: KA (binding constant) (converted)
Description: The concentration of CYA was varied at 0, 0.33, 0.66, 1.0, 1.33, 1.66, and 2.0 × 10^−6 M.
Steady-state fluorescence spectra were performed on a FP-6500 spectrofluorimeter (Jasco, Japan) equipped with a thermostatic bath and 1.0 cm quartz cell. Fluorescence emission spectra were recorded at 300, 305, and 310 K in the range of 295 nm–500 nm. The excitation and emission slits with a band pass of 5 nm were used for all the measurements.
Synchronous fluorescence spectra were performed when the D-values between the excitation and emission wavelengths were set at 15 and 60 nm. Fluorescence excitation spectra were recorded at 302, 307, and 312 K in the range of 200–400 nm.
The Stern–Volmer equation below was used to analyze the fluorescence quenching data and confirm the quenching mechanism ([Zhou et al., 2022]): F0/F=1+KSVQ=1+kqτ0Q , where F 0 and F are the fluorescence intensities before and after the addition of the quencher CYA, K sv is the Stern–Volmer quenching constant, k q is the bimolecular quenching constant, τ 0 is the lifetime of the fluorophore in the absence of the quencher (10^−8 s), and [Q] is the concentration of the quencher. The Stern–Volmer quenching constant K sv is inversely correlated with temperature, and the k q values are much greater than the maximum scattering collisional quenching constant (2.0 × 10^10 M^−1S^−1).
For static quenching, the equilibrium between the free and bound molecules is given by the following equation: logF0−F/F=logKA+nlogQ , where K A is the binding constant, and n is the number of binding sites. […] Moreover, the values of n were approximately equal to 1, which indicated the presence of one binding site in the BSA–CYA system.

liver = assay: Hepatotoxicity by liver transcriptomics; assay type: in vivo, KM mice; details: mice, CYA 1,000 mg/kg bw, 7 days
Description: For the hepatotoxicity study, a group of four mice (2 male and 2 female, KM) were administered CYA at a dose of 1,000 mg/kg bw. Another group of four mice received saline as a control. After 7 days, the mice were anaesthetised, sacrificed and their livers collected. A total of eight samples from 2 groups of the obtained livers were sent to Majorbio Technology Co., Ltd. (Shanghai, China) for testing, divided into the blank group (control; A1, A2, A3, A4) and the drug group administered CYA (drug; B1, B2, B3, B4), with 4 samples in each group. Sequencing was performed using the Meiji Medical Reference Transcriptome Sequencing Platform to complete the transcriptome analysis of eight samples. The raw reads were deposited into the NCBI Sequence Read Archive (SRA) database (BioProject: Number: PRJNA1082257).
Differently expressed genes are genes with significant differences obtained by computing the expression of all genes between different groups after transcriptome sequencing. On the Meggie Bio platform, differential gene analysis was carried out between groups by quantifying the expression results to obtain the genes that were differentially expressed between the two groups, and the differential analysis software was: DESeq2, the screening threshold was: |log2FC| ≥0 and padjust< 0.05, and the specific results are shown in Figure 5B below.

testis = system: testis; set-up: method as in Ihsan et al., 2011; details: ref Ihsan et al., 2011, cited from earlier work

T1 sequence (P02769 25-607): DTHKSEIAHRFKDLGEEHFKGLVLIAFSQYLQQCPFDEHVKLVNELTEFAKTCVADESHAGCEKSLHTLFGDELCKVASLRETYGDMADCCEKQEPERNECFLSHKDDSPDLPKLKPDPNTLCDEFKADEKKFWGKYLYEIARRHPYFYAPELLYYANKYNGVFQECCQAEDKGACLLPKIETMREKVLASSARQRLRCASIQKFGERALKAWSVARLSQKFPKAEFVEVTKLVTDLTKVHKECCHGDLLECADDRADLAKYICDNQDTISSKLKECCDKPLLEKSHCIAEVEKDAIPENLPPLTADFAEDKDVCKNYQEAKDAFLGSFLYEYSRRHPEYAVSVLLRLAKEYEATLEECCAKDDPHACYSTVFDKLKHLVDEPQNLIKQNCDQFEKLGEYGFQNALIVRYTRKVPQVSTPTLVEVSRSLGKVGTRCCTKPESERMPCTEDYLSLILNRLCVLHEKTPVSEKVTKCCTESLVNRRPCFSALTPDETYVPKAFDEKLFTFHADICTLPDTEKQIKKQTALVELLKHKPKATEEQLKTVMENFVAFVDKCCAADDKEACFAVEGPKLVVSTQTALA

N#CCC(=O)NN=Cc1c[n+]([O-])c2ccccc2[n+]1[O-] [CYA, (2-formylquinoxaline)-N1,N4-dioxide cyanoacetylhydrazone]
BSA secondary structure, turns ([1]; BSA alone 19%): 26%
BSA secondary structure, α-helix ([1]; BSA alone 20%): 21%
BSA secondary structure, unordered ([1]; BSA alone 26%): 25%
BSA secondary structure, β-strand ([1]; BSA alone 35%): 28%
Ksv (Stern-Volmer quenching constant) ([2]; T 302 K, pH 7.4): 86500 M⁻¹
kq (bimolecular quenching constant) ([2]; T 302 K, pH 7.4): 8.65 × 10^12 M^−1S^−1
n (number of binding sites) ([2]; T 302 K, pH 7.4): 1.139
Kd ([2]; T 302 K, pH 7.4): 5.71 µM
Ksv (Stern-Volmer quenching constant) ([2]; T 307 K, pH 7.4): 40700 M⁻¹
kq (bimolecular quenching constant) ([2]; T 307 K, pH 7.4): 4.07 × 10^12 M^−1S^−1
n (number of binding sites) ([2]; T 307 K, pH 7.4): 0.915
Kd ([2]; T 307 K, pH 7.4): 103 µM
Ksv (Stern-Volmer quenching constant) ([2]; T 312 K, pH 7.4): 33600 M⁻¹
kq (bimolecular quenching constant) ([2]; T 312 K, pH 7.4): 3.36 × 10^12 M^−1S^−1
n (number of binding sites) ([2]; T 312 K, pH 7.4): 0.931
Kd ([2]; T 312 K, pH 7.4): 178 µM
n (number of binding sites) ([2]; all temperatures): ~1
cell-process differential genes associated with apoptosis (liver): none
direction of change of lipid metabolism / steroid biosynthesis related genes (liver): predominantly downregulated
expression of StAR, P450scc, and 17β-HSD (liver transcriptomic data) (liver): no significant decrease
genes expressed uniquely after administration of the drug (liver): 249
genes of lipid metabolism-related pathways with significant changes (liver): 25
hepatotoxicity (transcriptomic assessment) (liver): low hepatotoxicity
significantly different genes associated with cell processes (liver): 23
genes significantly downregulated in liver, drug group vs blank group (liver; DESeq2, padjust< 0.05): 176

CC(=O)c1c(C)[n+]([O-])c2ccccc2[n+]1[O-] [MEQ, Mequindox]
mRNA expression levels of AR and 3β-HSD (testis; 110 mg/kg vs control group): significantly increased
mRNA expression levels of StAR, P450scc, and 17β-HSD in the testis (testis; 275 mg/kg vs control group): significantly reduced
